# Reference: patent publication US20040039060A1, “Inhibitor for enzyme having two divalent metal ions as active centers” (priority 2000, published 2004)
# Where two headings read alike, the source gives them in different places.
# Assays:
# [1] = UV spectrum measurement with stepwise addition of Mg2+ solution (chelate formation); type: physicochemical; conditions: compound 0.05 mmol/l, Mg2+ 0 to 3.6 mol/l, 240 nm to 500 nm, cell length 1 cm
# Experimental: Compounds C-1, D-2, D-5 and D-6 were employed to determine UV spectra with treating dropwise with metal solutions.
# The UV spectrum measurement was conducted with the cell length of 1 cm at a wavelength of 240 nm to 500 nm. Each test solution was obtained by preparing Solutions A^1, A2, B and C as shown below, adding an indicated volume of Solution A^1 or A2 to 1 ml of Solution B, making the total, volume 10 ml with Solution C. The concentrations of Compounds C-1, D-2, D-5 and D-6 in test solutions here were all adjusted at 0.05 mmol/l, and the concentrations of Mg^2+ were as indicated in Table 5.
# Solution A1: MgCl2 4 mol/l, MOPS 50 mmol/l, NaOH 23.6 mmol/l, Solvent: Water
# Solution A2: MgCl2 1 mol/l, MOPS 50 mmol/l, NaOH 23.6 mmol/l, Solvent: Water
# Solution B: Compound 1 0.5 mmol/l, Solvent: DMSO
# Solution C: NaCl 3 mol/l, MOPS 50 mmol/l, 23.6 mmol/l, Solvent: Water
# For the purpose of indicating the change in the UV spectrum as a result of the increase in the metal ion concentration, one figure contained each UV spectrum curve at various metal ion concentrations.
# [2] = molecular target: HIV-1 integrase (Human immunodeficiency virus type 1 group M subtype B, UniProt P04585); experiment: HIV-1 integrase inhibition assay (microtiter plate, immobilised substrate DNA, Dig-labelled target DNA, OD 405 nm); type: biochemical
# Experimental: Substrate DNA and target DNA, which sequences were indicated below, were synthesized by Amersham Pharmacia Biotech and dissolved in KTE buffer (composition: 100 mM KCl, 1 mM EDTA, 10 mM Tris-HCl (pH 7.6)) at concentration of 2 pmol/μl and 5 pmol/μl, respectively. The DNA solutions were annealed with each complement by slowly cooling after heating.
# Streptavidin, obtained from Vector Laboratories, was dissolved in 0.1 M carbonate buffer (composition: 90 mM Na2CO3, 10 mM NaHCO3) at concentration of 40 μg/ml. After coating each well of microtiter plates (obtained from NUNC) with 50 μl of the above solution at 4° C. overnight, each well was washed twice with PBS (composition: 13.7 mM NaCl, 0.27 mM KCl, 0.43 mM Na2HPO4, 0.14 mM KH2PO4) and blocked with 300 μl of 1% skim milk in PBS for 30 min. Additionally, each well was washed twice with PBS and added 50 μl of substrate DNA solution (2 pmol/μl). The microtiter plates were kept at room temperature for 30 min. Then, each well was washed twice with PBS and once with H2O.
# Subsequently, in the each well prepared above were added 45 μl of the reaction buffer prepared from 12 μl of the buffer (composition: 150 mM MOPS (pH 7.2), 75 mM MnCl2, 50 mM 2-mercaptoethanol, 25% glycerol, 500 μg/ml bovine serum albumin-fraction V), 1 μl of target DNA (5 pmol/μl), and 32 μl of the distilled water. Additionally, 6 μl of either a test compound in DMSO or DMSO for positive control(PC) was mixed with the above reaction buffer, then 9 μl of an integrase solution (30 pmol) was added and mixed well. In the well of negative control (NC) was added 9 μl of the integrase dilution buffer (composition: 20 mM MOPS (pH7.2), 400 mM potassium glutamate, 1 mM EDTA, 0.1% NP-40, 20% glycerol, 1 mM DTT, 4M urea).
# The microtiter plates were incubated at 30° C. for 1 hour. The reaction solution was removed and each well was washed twice with PBS. Subsequently, each well of the microtiter plates was filled with 100 μl of anti-digoxigenin antibody labeled with alkaline phosphatase (Sheep Fab fragment: obtained from Boehringer) and incubated at 30° C. for 1 hour. Then, each well was washed twice with 0.05% Tween20 in PBS and once with PBS. Next, 150 μl of the Alkaline phosphatase reaction buffer (composition: 10 mM p-Nitrophenylphosphate (obtained from Vector Laboratories), 5 mM MgCl2, 100 mM NaCl, 100 mM Tris-HCl (pH 9.5)) was added in each well. […] The optical density (OD) at 405 nm of each well was measured and the percent inhibition was determined by the following expression.
# The percent inhibition (%)=100[1-{(C abs.−NC abs.)/(PC abs.−NC abs.)}]
# When the percent inhibition (%) is X % at the concentration of x μg/ml and the percent inhibition (%) is Y % at the concentration of y μg/ml, one of which is more than 50% and the other is less than 50%, IC50 can be determined by the following expression.
# IC50(μg/ml)=x-{(X-50)(x-y)/(X-Y)}
# Compound No. in the Table 1 is the same as compound No. of the above example.
# [3] = UV spectrum measurement with monovalent ions Na+ and K+; type: physicochemical
SMILES,change in the UV spectrum curve as the metal ion concentration was increased [1],IC50 [2],change in the UV spectrum curve [3],"IC50 ([2]; concentration of the compound at percent inhibition 50%, MnCl2 buffer, 30° C., 1 hour)"
OC(=Cc1cc(CCc2ccccc2)ncn1)c1ccccc1 [Compound D-6],1-step change,> 331 µM,,
O=C(O)/C(O)=C/c1cc(CCc2ccccc2)ncn1 [Compound C-1],2-step change,5.55 µM,almost no change,
O=C(O)/C=C/c1cc(CCc2ccccc2)ncn1 [Compound D-2],no change,,,>100 µg/mL
